Key:
[1] = Static thermostability of stabilized resin, simplified method (GARDNER sub-scale), Compound C; details: 210° C
Protocol: (§1) The stabilizing power of the substances of the invention was studied from two points of view:
(§2) These studies were performed with six different formulae of vinyl resins (hereinafter referred to as Compounds).
(§3) The different compounds were mixed and calendered in a mixer of which the cylinders were heated to 160° C. The rigid sheets so obtained were then heated in an oven to a temperature between 180° C and 215° C, until incipient carbonization.
(§4) A stove with rotating drums, ventilated and equipped with a thermostat was used for this operation. In the trials described hereunder, the behaviour of a sheet containing the stabilizer to be tested was compared to that of a sheet of the same formula but containing 2-phenyl-indole as stabilizer.
(§5) 2. It is also possible to use a simplified method which is more rapid and with which valid results are also obtained: a reference scale is drawn up with sheets of thermally treated polyvinyl chloride, of which the colourations have been definitely determined in GARDNER degrees as above. A GARDNER sub-scale is thus obtained in polyvinyl chloride sheets which can be directly compared to the sheets to be tested without using the comparator.

[2] = assay type: physicochemical
From the text: The thermostability of Stabilizer 8 and that of 2-phenyl-indole were studied by differential thermoanalysis and by thermogravimetric analysis. […] Diagrams were made out for 2-phenyl-indole (i) and Compound 8 (ii) and enabled the following conclusions to be drawn: […]

[3] = Static thermostability of stabilized resin, GARDNER Scale Comparator, Compound B; details: 210° C
Protocol: as §1, §2, §3, §4
1. The colouration of the sheets, of which samples were removed from the stove at fixed intervals was compared to a standard scale of colouration, known as the GARDNER Scale, and expressed in terms of the reference figures of the GARDNER Scale.
Comparisons were made with a GARDNER Scale Comparator which contains 18 filters of coloured glass and which offers the possibility of observing by transparency and in a limited field of view both the sheet and the reference filters.
Compound B was used and the sheets obtained presented the following characteristics: […]

[4] = Static thermostability of stabilized resin, simplified method (GARDNER sub-scale), Compound E; details: 185° C
Protocol: as §1, §2, §3, §4, §5

[5] = Thermostability of the stabilizers: thermogravimetric analysis; assay type: physicochemical
Protocol: The thermostability of Stabilizer 8 and that of 2-phenyl-indole were studied by differential thermoanalysis and by thermogravimetric analysis.
This analysis necessitated two series of trials carried out under air and under inert gas (Argon) in order to eliminate any possible effect of oxygen. The results obtained were identical.
The temperature increase rate was 80° C/hour. Thermograms were drawn up under air for both 2-phenyl-indole (i) and for Stabilizer 8 (ii) and enabled the following conclusion to be drawn: […]

[6] = Sticking of the stabilized material; details: cylinders at 210° C, 3 min mixing / 3 min rest
Protocol: Compounds Nos. 609 and 675 were placed in a mixer of the type previously used for studying static thermostability with cylinders at a fixed temperature of 210° C.
They were submitted to alternate periods of 3 minutes of mixing and 3 minutes of rest.

[7] = test system: mice; assay: Acute toxicity by oral route in mice (LD50); assay type: in vivo; details: LD50 study
Protocol: (§6) The study of the acute toxicity of the stabilizers listed below was carried out by determining the dose of substance which provoked the death of 50% of the treated animals (LD50). A gummy suspension of the substance under study was administered by oral route to groups of at least ten mice and the following results were observed: […]

[8] = Acute toxicity by oral route in mice (LD50); assay type: in vivo; details: mouse, in vivo, gummy suspension
Protocol: as §6

[9] = Sublimation of the stabilizers; assay type: physicochemical; details: 120° C, 15 Torr, 150 min
From the text: A sample of the substance to be tested was introduced into a test tube and heated under reduced pressure. The fraction of sublimated substance was recovered on a mobile cold wall.
After a certain period of time, the sublimated substance was weighed and the result expressed as a percentage of the weight of the starting-material.
The results obtained can only be of relative value, enabling a comparison to be made between two products tested under the same conditions.
Operating conditions (chosen at random).
Temperature of heating 120° C
Temperature of the cold wall
Duration of heating 150 minutes

[10] = Dynamic thermostability of stabilized resin on a plastograph, Compound C; details: Compounds C and F, 190° C
Protocol: The dynamic thermostability of resins containing respectively 2-(4'-dodecyloxy-phenyl)-indole and 2-phenyl-indole as stabilizers was compared by using the Compounds numbered hereunder:
No. 609: Compound C with 2-phenyl-indole as Stabilizer
No. 675: Compound C with Stabilizer 8
The tests were performed on a plastograph, working at a temperature of 190° C, turning at a speed of 60 r.p.m. and containing a charge of 30 g of gelled material.
Two curves were drawn namely:
a decomposition curve giving the value of the resistant torque (m kg) in relation to time.
From this curve, two important results were obtained: the minimal resistant torque and the time of decomposition.
a curve giving the self-heating time in relation to temperature.
The self-heating time is defined by the moment when the temperature of the sheet exceeds the temperature of the plastograph (190° C).

[11] = Static thermostability of stabilized resin, simplified method (GARDNER sub-scale), Compound D; details: 185° C
Protocol: as §1, §2, §3, §4, §5

For `CCCCCCCCCCCCOc1ccc(-c2cc3ccccc3[nH]2)cc1` [Stabilizer 8, 2-(4'-dodecyloxy-phenyl)-indole], the “Colouration of sheet (GARDNER sub-scale)” value ([1]; 0 min) was 1 GARDNER degrees, the “Colouration of sheet (GARDNER sub-scale)” value ([1]; 10 min) was 1.5 GARDNER degrees and the “Colouration of sheet (GARDNER sub-scale)” value ([1]; 20 min) was 2 GARDNER degrees. The “Colouration of sheet (GARDNER sub-scale)” value ([1]; 30 min) was 2.5 GARDNER degrees, the “Colouration of sheet (GARDNER sub-scale)” value ([1]; 40 min) was less than 3 GARDNER degrees and the “Colouration of sheet (GARDNER sub-scale)” value ([1]; 50 min) was 3 GARDNER degrees. The “Colouration of sheet (GARDNER sub-scale)” value ([1]; 55 min) was 3 GARDNER degrees, the “Colouration of sheet (GARDNER sub-scale)” value ([1]; 60 min) was 3.5 GARDNER degrees and the “Static thermostability compared with 2-phenyl-indole” value ([1]; after 60 min) was “superior as a stabilizer to 2-phenyl-indole”. The Melting temperature [2] was 203 °C, the Start of decomposition ([2]; 2° C/minute) was 300 °C and the “Colouration of sheet (GARDNER Scale)” value ([3]; 0 min) was 1 GARDNER degrees. The “Colouration of sheet (GARDNER Scale)” value ([3]; 3 min) was 1 GARDNER degrees, the “Colouration of sheet (GARDNER Scale)” value ([3]; 6 min) was 2 GARDNER degrees and the “Colouration of sheet (GARDNER Scale)” value ([3]; 9 min) was 3 GARDNER degrees. For the same compound, the “Colouration of sheet (GARDNER Scale)” value ([3]; 12 min) was 3 GARDNER degrees, the “Colouration of sheet (GARDNER Scale)” value ([3]; 15 min) was 5 GARDNER degrees and the “Colouration of sheet (GARDNER Scale)” value ([3]; 18 min) was 7 GARDNER degrees. The “Colouration of sheet (GARDNER Scale)” value ([3]; 21 min) was 11 GARDNER degrees, the “Static thermostability compared with 2-phenyl-indole” value ([3]; 21 min) was “clearly superior to 2-phenyl-indole” and the Thickness of sheet ([3]; after 21 min) was 1.30 mm. For the same compound, the State of sheet ([3]; after 24 min) was “burnt”, the “Colouration of sheet (GARDNER sub-scale)” value ([4]; 0 min) was less than 1 GARDNER degrees and the “Colouration of sheet (GARDNER sub-scale)” value ([4]; 10 min) was less than 1 GARDNER degrees. For the same compound, the “Colouration of sheet (GARDNER sub-scale)” value ([4]; 20 min) was less than 2 GARDNER degrees, the “Colouration of sheet (GARDNER sub-scale)” value ([4]; 30 min) was less than 3 GARDNER degrees and the “Start of weight loss” value ([5]; 80° C/hour, under air) was “about 295 °C”. The “Thermostability of the stabilizer compared with 2-phenyl-indole” value ([5]; thermogravimetric analysis and differential thermoanalysis) was “greater thermostability than 2-phenyl-indole”, the “Sticking of the stabilized material” value [6] was “comparable” and the Toxic symptoms [7] was “none”. For the same compound, the LD50 [8] was greater than 5000 mg/kg, the “Sublimation relative to 2-phenyl-indole” value [9] was “forty times less than that of 2-phenyl-indole” and the “Percentage of sublimated substance” value ([9]; cold wall 13° C) was 0.6%. For the same compound, the “Dynamic thermostability compared with 2-phenyl-indole” value [10] was “slight superiority over 2-phenyl-indole”, the “Colouration given to the co-polymer” value [11] was “less yellow-coloured than that containing 2-phenyl-indole” and the “Static thermostability compared with 2-phenyl-indole” value [11] was “superior to 2-phenyl-indole”. For the same compound, the “Colouration of sheet (GARDNER sub-scale)” value ([11]; 0 min) was less than 1 GARDNER degrees, the “Colouration of sheet (GARDNER sub-scale)” value ([11]; 10 min) was less than 2 GARDNER degrees and the “Colouration of sheet (GARDNER sub-scale)” value ([11]; 20 min) was 2 GARDNER degrees. The “Colouration of sheet (GARDNER sub-scale)” value ([11]; 30 min) was less than 3 GARDNER degrees.
